Measured values as given in a melting point compilation (Tetko et al.; mined from patent text by program, amines drawn as free bases though some values may be those of a salt).

First: CN1CCN(c2cccc3c(S(=O)(=O)c4ccccc4)c[nH]c23)CC1
Second: CN1CCN(c2cc3c(cc2F)c(=O)c(C(=O)O)c2ccccn23)CC1
The melting point of the first is lower: 160 to 162 °C for the first, 264 to 266 °C for the second.

First: CC(=O)c1ccc(OCCCOc2cccc(NC(=O)c3nnn[nH]3)c2C#N)c(CCC(F)(F)F)c1O
Second: O=C(O)c1cccc(OCCCCCCc2cccc(O)c2O)c1
The melting point of the first is higher: 206 to 208 °C for the first, 123 to 125 °C for the second.

First: CCOC(=O)c1cc(S)cc(S)c1
Second: CCOC(=O)c1ccc(N)c(CNC(C)(C)C)c1
The melting point of the first is lower: 49 to 51 °C for the first, 77 to 79 °C for the second.

First: [N-]=[N+]=CC(=O)CC1CCCCC1
Second: O=C(NCC(O)c1ccccc1)C1CCCCC1 (stereo unspecified)
The melting point of the first is lower: 58 to 62 °C for the first, 118 to 119 °C for the second.

First: CON=C(C#N)C1=CCCN(OC(=O)Nc2ccccc2)C1
Second: COc1ccc(C(C#Cc2ccccc2)CC(=O)Nc2nccs2)cc1OC1CCCC1 (racemic)
The melting point of the first is lower: 128 to 130 °C for the first, 142 to 144 °C for the second.

First: O=C1CCCCN1CCCOC1c2ccccc2C(=O)N1c1ccc2ccc(Cl)nc2n1 (stereo unspecified)
Second: O=C1c2ccccc2-c2[nH]nc(-c3ccc(Cl)cc3)c21
The melting point of the first is lower: 140 °C for the first, > 330 °C for the second.

First: Cc1c(-c2ccc([N+](=O)[O-])cc2)sc2[nH]c(=O)n(-c3ccccc3)c(=O)c12
Second: O=C1OC(=Cc2ccc3ccccc3c2)C(=O)C(c2ccc(Cl)cc2)=C1O
The melting point of the first is higher: > 300 °C for the first, 274 to 275 °C for the second.

Compared with COc1ccc(SCc2ccc(-c3csnn3)cc2)cc1, COC(=O)COc1ccc(S(=O)(=O)c2ccc(O)cc2)cc1 is higher in melting point: 117 to 119 °C for the first, 159 to 161 °C for the second.

First: Cc1sc2c(c1C)C(c1ccc(Cl)cc1)=N[C@@H](CC(=O)Nc1ccc(N)cc1)c1nnc(C)n1-2
Second: Nc1ccc(C(=O)Nc2ccc(-n3nc(C(F)(F)F)cc3C(F)(F)F)cc2)cc1
The melting point of the first is lower: 169 to 173 °C for the first, > 240 °C for the second.

CCNC(=O)NCCC1CCCc2ccc(OC)cc21 (stereo unspecified) and COc1ccc2c(c1)CCC1C3CCC(=O)C3(C)CCC21O (stereo unspecified) cannot be ordered by melting point: 70 to 71 °C for the first, 69 to 74 °C for the second.

Compared with O=C(NCCc1ccncc1)c1[nH]c2ccc(Cl)cc2c1S(=O)(=O)c1ccccc1, O=C(O)CCc1c(C(=O)O)[nH]c2cc(-c3ccccc3)cc(-c3ccccc3)c12 is lower in melting point: 258 to 260 °C for the first, 243 to 245 °C for the second.

First: CC(C)(C)OC(=O)NC12CCC1CN(c1c(F)cc3c(=O)c(C(=O)O)cn(C4CC4)c3c1F)C2 (stereo unspecified)
Second: CCN1CCN(c2c(F)c(N)c3c(=O)c(C(=O)O)cn(C4CC4)c3c2F)CCC1=O
The melting point of the first is lower: 211 to 215 °C for the first, 276 to 278 °C for the second.

First: COc1ccc(OC(CCCN2CC3CCC(C2)N3C(=O)OC(C)(C)C)c2ccc(C#N)cc2)cc1OC (stereo unspecified)
Second: CCCCNC(=O)NS(=O)(=O)c1cc2c(cc1OC)OCC(NC(=O)c1cc(Cl)ccc1OC)C2 (stereo unspecified)
The melting point of the first is lower: 38 to 41 °C for the first, 185 to 186 °C for the second.

Compared with O=C(O)c1nc2cc(-n3cccc3)c([N+](=O)[O-])cc2[nH]c1=O, COCCc1nc2c(N)nc3ccccc3c2n1CCCCNC(=O)c1ccc(-n2cccc2)nc1 is lower in melting point: > 300 °C for the first, 77 to 80 °C for the second.

Compared with CCCCCCCOc1ccc(COc2ccc(-c3ccc(OC(C)CCCCCC)cc3)cc2)cc1 (stereo unspecified), CCOc1ccc(OCc2ccc(OCc3nc(-c4ccccc4)oc3C)cc2)cc1CC(=O)O is higher in melting point: 98.1 °C for the first, 122 to 123 °C for the second.

First: COC(=O)CCc1cc2cc(C(F)(F)F)ccc2n1S(=O)(=O)c1ccccc1
Second: Oc1cccc(-n2cnc3cc(C(F)(F)F)ccc32)c1
The melting point of the first is lower: 81 to 83 °C for the first, 168 to 170 °C for the second.

First: O=P(COc1ccc2ccccc2c1-c1c(OCP(=O)(c2ccccc2)c2ccccc2)ccc2ccccc12)(c1ccccc1)c1ccccc1
Second: CC(C)[C@H](NC(=O)OCc1ccc2ccccc2n1)C(=O)N[C@@H](Cc1ccccc1)[C@@H](O)C[C@H](Cc1ccccc1)NC(=O)OCc1cccnc1
The melting point of the first is higher: 252 to 253 °C for the first, 159 to 163 °C for the second.

Compared with Cc1nc[nH]c1CSCCNc1cc(=O)cc[nH]1, Cc1cc(=O)n2cccc(OCc3ccccc3Cl)c2n1 is lower in melting point: 208 to 210 °C for the first, 166 to 168 °C for the second.

First: CC1CC(=O)c2cccc(C(N)=S)c21 (stereo unspecified)
Second: COc1ccc2c(c1)CCNC2=O
The melting point of the first is higher: 198 to 200 °C for the first, 128 to 130 °C for the second.

Compared with CC(C)(C)OC(=O)C(N)Cn1c(=O)c(-c2cccs2)nc2ccccc21 (stereo unspecified), CC(C)(C)C(O)C(C(CC#N)c1ccccc1)n1ccnc1 (stereo unspecified) is higher in melting point: 144 to 145 °C for the first, 212 to 228 °C for the second.

Going from c1ccc(-c2cnc(NC3CCC(CCN4CCN(c5ccccc5)CC4)CC3)nc2)cc1 (stereo unspecified) to O=S1(=O)c2cccc3cccc(c23)N1CCCN1CCC(c2ccccc2)(c2ccccc2)CC1, the melting point falls from 170 °C to 168 °C.

First: NCC1Cc2cc(C(F)(F)F)cc(-c3ccc(F)cc3)c2O1 (stereo unspecified)
Second: CNc1nc(=O)c2cccnc2n1Cc1ccc(F)cc1
The melting point of the first is higher: > 250 °C for the first, 242 to 246 °C for the second.

First: N#Cc1ccc(C(=O)Nc2nc(-c3ccco3)c(C(=O)C3CCOCC3)s2)o1
Second: O=C(Nc1nc(C(Cl)(Cl)Cl)ns1)c1c(Cl)cccc1Cl
The melting point of the first is higher: 222 to 223 °C for the first, 209 °C for the second.

Compared with CC(C)OC(=O)C(C)(C)Oc1ccc(C(=O)c2ccc(O)cc2)cc1, COc1ccc2c(c1)c(CC(=O)N(O)C(C)C)c(C)n2C(=O)c1ccc(Cl)cc1 is higher in melting point: 124 °C for the first, 198 to 199 °C for the second.

Compared with CN(Cc1ccc(S(C)=O)s1)C(=O)C12CC3CC(CC(C3)C1)C2 (stereo unspecified), CC1CC2C3CCC4=CC(=O)C=CC4(C)C3=CCC2(C)C1(O)C(=O)CO (stereo unspecified) is higher in melting point: 91.5 to 93.5 °C for the first, 216 to 218 °C for the second.

Compared with CC(CN1CCCC1)N1c2ccccc2Sc2ccc(C(=O)NCc3cccc(F)c3)cc21 (racemic), COC(=O)C(Oc1cc(OCc2ccc3ncoc3c2)ccc1C#N)c1ccccc1Cl (racemic) is lower in melting point: 165 °C for the first, 157 to 159 °C for the second.

First: COCc1c(C(=O)OC)c2cc(OC)ccc2n1C
Second: COc1cc(NC(SC)=C(C#N)S(=O)(=O)c2ccc(Cl)cc2)cc(OC)c1
The melting point of the first is lower: 89.2 to 91 °C for the first, 120 to 123 °C for the second.

Compared with CC(=O)Nc1ccc2sc3ccc(Br)cc3c(=O)c2c1, O=S1(=O)C=Cc2cc(Br)ccc2O1 is lower in melting point: 219 to 222 °C for the first, 140 to 142 °C for the second.

First: COc1cc2c(cc1OC)OCC(=O)C2
Second: COc1cc(C(C)C)c(Oc2cnc(N)nc2N)cc1C#CC1CC1
The melting point of the first is lower: 126 to 130 °C for the first, 226 to 227 °C for the second.

First: Cc1ccc(-n2c3ccc(C=O)cc3c3cc(C=O)ccc32)cc1
Second: Cc1cc(C)c(C)c(P(=O)(c2ccc(F)cc2)c2ccc(F)cc2)c1C
The melting point of the first is higher: 229 to 230 °C for the first, 171 to 173 °C for the second.

Compared with CCCCCCCCCCCCCCCCn1c(-c2ccc(Cl)c(N)c2)nnc1-c1ccc(Cl)c(N)c1, COc1ccc(Cl)c(NC(=S)N(CCN2C(=O)c3ccccc3C2=O)OCc2ccccc2)c1Cl is higher in melting point: 88 to 90 °C for the first, 175 to 176 °C for the second.

C[N+]1([O-])CCC(=C(c2ccsc2)c2ccsc2)CC1 (stereo unspecified) and COC(=O)C(Oc1ccc(Cl)c2c1CCC2)c1ccc(Oc2ccc(Cl)cc2)cc1 (stereo unspecified) cannot be ordered by melting point: 92 to 96 °C for the first, 94 to 96 °C for the second.

Compared with Nc1cnc2ccc(Cl)cc2n1, Cc1sc(-c2cnc3ccccc3c2)nc1O is higher in melting point: 219 to 222 °C for the first, 279 to 280 °C for the second.

First: FC(F)(F)c1cc(Cl)c(-n2cc(C3CC3(Cl)Cl)nn2)c(Cl)c1 (stereo unspecified)
Second: O=S1(=O)N=C(NCC2CC2)Nc2ccc(C(F)(F)F)cc21
The melting point of the first is lower: 134 to 136 °C for the first, 266 to 268 °C for the second.

First: O=C(O)c1cc(Br)nn1-c1ncccc1Cl
Second: Cc1nnc2n1-c1ccc(Cl)cc1C(c1ccccc1)N2 (stereo unspecified)
The melting point of the first is lower: 200 to 201 °C for the first, 262 to 265 °C for the second.

First: CCOc1ccc(C(=O)[C@H]2CC=CC[C@H]2C(=O)O)cc1OCC (relative stereo)
Second: CCOCc1ccc(C=C(C)c2ccc3c(c2)C(C)(C)CCO3)cc1
The melting point of the first is higher: 125 to 127 °C for the first, 59 to 60 °C for the second.

First: CCOC(=O)Cn1c2c([nH]c(=O)c1=O)CCC1=C2C=C(N)CC1
Second: COc1ccc(Cn2c(=S)[nH]c(=O)c3[nH]cnc32)cc1OC1CCCC1
The melting point of the first is lower: 238 °C for the first, 254 to 265 °C for the second.

First: CN(C)CCOc1nc(NCc2cccs2)nc(Nc2cccc(C(F)(F)F)c2)n1
Second: CCCCOC1C=CC(=O)N1S(=O)(=O)c1cccc(C(F)(F)F)c1 (stereo unspecified)
The melting point of the first is higher: 51 to 53 °C for the first, 42 to 43 °C for the second.

First: COc1ccc(COC(=O)N[C@@H](CC(N)=O)C(=O)N[C@@H](Cc2ccccc2)[C@H](O)C(=O)N2CCC[C@H]2C(=O)NC(C)(C)C)cc1
Second: COc1ccc(/C=C/C(=O)C2C(=O)CC(c3ccc(OC)cc3)C([N+](=O)[O-])C2c2cccc([N+](=O)[O-])c2)cc1 (stereo unspecified)
The melting point of the first is lower: 95 to 97 °C for the first, 204 to 206 °C for the second.

First: C[C@@H](n1ccn(-c2ccc(O)cc2)c1=O)[C@](O)(Cn1cncn1)c1ccc(F)cc1F
Second: Clc1ccc(-c2ccnc(CN3CCC(c4ccc(Cl)cc4)CC3)c2)cc1
The melting point of the first is higher: 93 to 103 °C for the first, 89 to 91 °C for the second.

First: NCCc1ccc(OCCC(=O)O)cc1
Second: FC(F)(F)/C(=C(/c1ccccc1)c1ccc(OCCBr)cc1)c1ccccc1
The melting point of the first is higher: 216 °C for the first, 135 to 138 °C for the second.

First: O=C(Nc1cc(Cl)cc(Cl)c1)C1=C(O)N2CCCN=C2S1
Second: C=CCNCc1c(CO)nc2n1-c1ccc(Cl)cc1C(c1ccccc1F)=NC2
The melting point of the first is higher: 270 °C for the first, 140 °C for the second.

First: NCCCC(F)(F)C(F)(F)C(F)(F)C(F)(F)C(F)(F)C(F)(F)C(F)(F)C(F)(F)C(F)(F)C(F)(F)F
Second: NC(=O)Cc1c(F)cccc1C(F)(F)F
The melting point of the first is lower: 53 to 55 °C for the first, 172 to 174 °C for the second.

Compared with COc1ccnc(CCc2nc3cc(-c4ccc(S(=O)(=O)N(C)C)cc4C)cnc3[nH]2)c1, Cc1c(C)c2c(c(C)c1OCc1ccccn1)C(c1ccc(C(C)C)cc1)C(C)(C)O2 (stereo unspecified) is lower in melting point: 179 to 180 °C for the first, 88 to 89 °C for the second.

Compared with CN(C)c1ccc(N=Nc2ccc(S(=O)(=O)NCc3ccc4c(c3)-c3n[nH]c(=O)c5cccc(c35)O4)cc2)cc1, COCC(COC)N(C)Cc1ccc(NC(=O)C2=Cc3cc(-c4ccc(C)cc4)ccc3OCC2)cc1 is lower in melting point: > 300 °C for the first, 128 to 132 °C for the second.

First: O=C1C(c2ccccc2)OC(=S)N1Nc1ccccc1 (stereo unspecified)
Second: CO[C@@H]1c2ccn3c(C)c(C)nc3c2N[C@H](c2ccccc2)[C@H]1OC(=O)c1ccccc1
The melting point of the first is higher: 140 to 141 °C for the first, 92 to 93 °C for the second.

First: CC(C)(C)OC(=O)N[C@@H](CO)C(=O)NCCO
Second: Cc1c(CCC(=O)O)cc(C(C)(C)C)c(O)c1C
The melting point of the first is lower: 74 to 76 °C for the first, 191 to 193 °C for the second.

First: CCS(=O)(=O)Nc1ccc2[nH]cc(C3CCN(C)CC3)c2c1
Second: Nc1n[nH]c2cccc(C(F)(F)F)c12
The melting point of the first is higher: 176 to 178 °C for the first, 129 to 130 °C for the second.
